Experimental data as given in patent publication US20240199644A1, “Fused Ring Derivatives Useful as KRAS G12D Inhibitors” (JACOBIO PHARMACEUTICALS CO., LTD., priority 2021, published 2024).

Key:
[1] = biological target: GDP-loaded HIS-KRAS(G12D, aa 1-169) (Homo sapiens (Human), UniProt P01116, G12D); test: SOS1 catalyzed nucleotide exchange assay; type: biochemical; details: TR-FRET; 1.5 nM GDP-loaded HIS-KRAS(G12D), 0.5 μM SOS1 ExD, 4 hours at 25° C.
Experimental: GDP-loaded HIS-KRAS(G12D, aa 1-169) was pre-incubated with a compound in the presence of 10 nM GDP in a 384-well plate (Greiner) for 15 min, then purified SOS1 ExD(Flag tag, aa 564-1049), BODIPY™ FL GTP (Invitrogen) and MAb(monoclonal antibody) Anti 6HIS-Tb cryptate Gold (Cisbio) were added to the assay wells (Final concentration: 1.5 nM GDP-loaded HIS-KRAS(G12D), 5 nM GDP, 0.5 μM SOS1 ExD, 80 nM BODIPY™ FL GTP, 52.5 ng/mL MAb Anti 6HIS-Tb cryptate Gold) and incubated for 4 hours at 25° C. Wells containing same percent of DMSO served as vehicle control, and wells without KRAS served as low control. TR-FRET signals were read on Tecan Spark multimode microplate reader. The parameters were F486: Excitation 340 nm, Emission 486 nm, Lag time 100 μs, Integration time 200 μs; F515: Excitation 340 nm, Emission 515 nm, Lag time 100 μs, Integration time 200 μs. TR-FRET ratios for each individual wells were calculated by equation: TR-FRET ratio=(Signal F515/Signal F486)*10000. The percent of activation of compounds treated wells were normalizedbetween vehicle control and low control. Then the data were analyzed using a 4-parameter logistic model to calculate ICso values.

[2] = biological target: GppNp-loaded HIS-KRAS(G12D, aa 1-169) / cRAF RBD (Homo sapiens (Human), UniProt P01116, G12D); test: GTP-KRAS and cRAF interaction assay; type: biochemical; details: HTRF; 2.0 nM GppNp-loaded HIS-KRAS(G12D), 35 nM cRAF RBD, 100 μM GTP, 2 hours at 25° C.
Experimental: GppNp-loaded HIS-KRAS(G12D, aa 1-169) was pre-incubated with a compound in the presence of 200 μM GTP in a 384-well plate (Greiner) for 15 min, then cRAF RBD(GST tag, aa 50-132, CreativeBioMart), MAb Anti GST-d2 (Cisbio) and MAb Anti 6HIS-Tb cryptate Gold (Cisbio) were added to the assay wells (Final concentration: 2.0 nM GppNp-loaded HIS-KRAS(G12D), 100 μM GTP, 35 nM cRAF RBD, 1 μg/mL MAb Anti GST-d2, 52.5 ng/mL MAb Anti 6HIS-Tb cryptate Gold) and incubated for 2 hours at 25° C. Wells containing same percent of DMSO served as vehicle control, and wells without KRAS served as low control. HTRF signals were read on Tecan Spark multimode microplate reader and HTRF ratios were calculated under manufacturer's instructions. The percent of activation of compounds treated wells were normalized between vehicle control and low control. Then the data were analyzed using a 4-parameter logistic model to calculate IC50 values.

Chain of GppNp-loaded HIS-KRAS(G12D, aa 1-169) / cRAF RBD (P01116 other isoform, or with tags, fused parts or gaps G12D): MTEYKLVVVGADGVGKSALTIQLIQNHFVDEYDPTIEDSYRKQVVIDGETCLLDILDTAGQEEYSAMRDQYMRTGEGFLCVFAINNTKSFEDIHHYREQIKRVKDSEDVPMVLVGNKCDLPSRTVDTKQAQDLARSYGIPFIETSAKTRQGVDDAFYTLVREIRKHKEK
Chain of GDP-loaded HIS-KRAS(G12D, aa 1-169) (P01116 other isoform, or with tags, fused parts or gaps G12D): as above

`C#Cc1cccc2cc(O)cc(-c3cc4nc(OC[C@@]56CCCN5C[C@H](F)C6)nc5c4c(c3Cl)OC[C@@H]3[C@@H]4CC[C@H](CN53)N4)c12` [Compound 11] gave an IC50 [1] of 7.24 nM and an IC50 [2] of 184 nM.

`CN(C)CC1(COc2nc3c4c(c(Cl)c(-c5cc(O)cc6ccccc56)cc4n2)OC[C@@H]2CNCCN32)CC1` [Compound 1] was tested, and the IC50 [1] was 3860 nM and the IC50 [2] was 31400 nM.

With `C#Cc1c(F)ccc2cc(O)cc(-c3cc4c5c(nc(OC[C@@]67CCCN6C[C@H](F)C7)nc5c3F)N3C[C@H]5CC[C@H](N5)[C@H]3CO4)c12` [Compound 10] the IC50 [1] was 0.452 nM and the IC50 [2] was 5.4 nM.

`C#Cc1c(F)ccc2cc(O)cc(-c3c(Cl)c4c5c(nc(OC[C@@]67CCCN6C[C@H](F)C7)nc5c3F)N3C[C@H]5CC[C@H](N5)[C@H]3CO4)c12` (atropisomer, axis not shown) [Compound 12] showed an IC50 [1] of 35.8 nM and an IC50 [2] of 154 nM.

`C#Cc1c(F)ccc2cc(O)cc(-c3nc4c5c(nc(OC[C@@]67CCCN6C[C@H](F)C7)nc5c3F)N3C[C@H]5CC[C@H](N5)[C@H]3CO4)c12` [Compound 6] was tested, and the IC50 [1] was 0.23 nM and the IC50 [2] was 3.9 nM.

With `C#Cc1c(F)ccc2cc(O)cc(-c3c(Cl)c4c5c(nc(OC[C@@]67CCCN6C[C@H](F)C7)nc5c3F)N3C[C@H]5CC[C@H](N5)[C@H]3CO4)c12` (atropisomer, axis not shown) [Compound 13] the IC50 [1] was 0.691 nM and the IC50 [2] was 4.8 nM.

With `CN(C)CC1(COc2nc3c4c(c(Cl)c(-c5cc(O)cc6ccccc56)cc4n2)OC[C@H]2CNCCN32)CC1` [Compound 2] the IC50 [1] was 880 nM and the IC50 [2] was 23300 nM.

In the case of `C#Cc1cccc2cc(O)cc(-c3cc4c5c(nc(OCC6(CN7CCOCC7)CC6)nc5c3F)N3C[C@H]5CC[C@H](N5)[C@H]3CO4)c12` [Compound 5], the IC50 [1] is reported as 1.16 nM and the IC50 [2] is reported as 20.5 nM.

Molecule `C#Cc1c(F)ccc2cc(O)cc(-c3nc4c5c(nc(OCC6(CN7CCOCC7)CC6)nc5c3F)N3C[C@H]5CC[C@H](N5)[C@H]3CO4)c12` [Compound 7] has an IC50 [1] of 0.659 nM and an IC50 [2] of 9.8 nM.

`C#Cc1c(F)ccc2cc(O)cc(-c3cc4c5c(nc(OCC6(CN7CCOCC7)CC6)nc5c3F)N3C[C@H]5CC[C@H](N5)[C@H]3CO4)c12` [Compound 14] was tested, and the IC50 [1] was 1.15 nM and the IC50 [2] was 9.2 nM.

`C#Cc1c(F)ccc2cc(O)cc(-c3nc4c5c(nc(OC[C@@]67CCCN6C[C@H](F)C7)nc5c3F)N3C[C@@H]5CC[C@@H](N5)[C@@H]3CO4)c12` [Compound 8] showed an IC50 [1] of 32.6 nM and an IC50 [2] of 280 nM.

With `C#Cc1c(F)ccc2cc(O)cc(-c3nc4c5c(nc(OC[C@@]67CCCN6C[C@H](F)C7)nc5c3F)N3C[C@@H]5CC[C@@H](N5)[C@H]3CO4)c12` [Compound 9] the IC50 [1] was 81 nM and the IC50 [2] was 2240 nM.

Work on `C#Cc1cccc2cc(O)cc(-c3cc4c5c(nc(OCC6(CN7CCOCC7)CC6)nc5c3F)N3[C@H]5CN[C@H](C5)[C@@H]3CO4)c12` [Compound 16] yielded an IC50 [1] of 86.1 nM and an IC50 [2] of 660 nM.

In the case of `Oc1cc(-c2cc3nc(OC[C@@]45CCCN4C[C@H](F)C5)nc4c3c(c2Cl)OC[C@H]2CNCCN42)c2ccccc2c1` [Compound 3], the IC50 [1] is reported as 294 nM and the IC50 [2] is reported as 11600 nM.

With `C#Cc1cccc2cc(O)cc(-c3cc4c5c(nc(OCC6(CN7CCOCC7)CC6)nc5c3F)N3[C@@H]5CN[C@@H](C5)[C@@H]3CO4)c12` [Compound 15] the IC50 [1] was 11 nM and the IC50 [2] was 251 nM.

Work on `C#Cc1cccc2cc(O)cc(-c3cc4c5c(nc(OCC6(CN7CCOCC7)CC6)nc5c3F)N3C[C@H]5CC[C@H](N5)[C@@H]3CO4)c12` [Compound 4] yielded an IC50 [1] of 2.5 nM and an IC50 [2] of 378 nM.
